Assay results published in patent publication US11419843B2, “Small molecule BCL-2 functional converters as cancer therapeutics” (Oregon State University, priority 2016, dated 2022).
“Also recorded” adds a separate entry of the source. Read-outs that look alike come from different tables or passages of the source. Blank lines part the entries; values can stand above or below the molecule they belong to.

Experiments:
[1] = system: Bcl-2 low and high expressing Jurkat lymphoma cells (Jurkat/Vector, Jurkat/Bcl-2); assay: Cell viability in Bcl-2 low and high expressing Jurkat cells; assay type: cell-based, human
[2] = system: MDA-MB-231/Vector and MDA-MB-231/Bcl-2 cells; assay: Viability screening assay in MDA-MB-231 cells with high and low Bcl-2 (CellTiter Glo); assay type: cell-based, human; details: for Bcl-2 selective reduction in viability, MDA-MB-231/Bcl-2 vs MDA-MB-231/Vector: 10 μM, 10% serum; for Bcl-2 dependent reduction in viability, MDA-MB-231/Bcl-2 vs Vector: 10% FBS
Procedure: In one example, a triple negative breast cancer cell line, MDA-MB-231, was used for screening these libraries. […] At the end of the assay, cell viability was determined using the cell titer Glo assay. […] A hit was defined as a compound inducing more than 20% reduction in viability of MDA-MB-231/Bcl-2 cells, compared to vector controls (MDA-MB-231/Vector). In the next step these shortlisted small molecules were tested for their ability to convert the conformation of Bcl-2 into a pro-apoptotic one.
To screen for Bcl-2 selective compounds, MDA-MB-231 cells (MDA-MB-231/Vector and MDA-MB-231/Bcl-2) were plated at 4000 cells per well in a 96 well black opaque plate. The day after plating the cells, treatment from the library plates was done so as to add 1 μL of the compound into the cells, resulting in 10 μM concentration. For non-specific […], 25 nM of staurosporin was used. […] Post treatment viability was assessed by CellTiter Glo Cell Viability assay (Promega Inc., Madison, Wis.) as per manufacturer instructions.
Viability for test compounds in each cell line (MDA-MB-231/Vector and MDA-MB-231/Bcl-2) was normalized to their respective vehicle treatments. Compounds that had at least 20% less viability in the MDA-MB-231/Bcl-2 cell line than the MDA-MB-231/Vector cell line were selected as initial hits and shortlisted for revalidation. Revalidated compounds were reordered for further testing and characterization. All data analyses were performed using Microsoft Excel.

[3] = system: MCF-7/Vector and MCF-7/Bcl-2 cells; assay: Viability of MCF-7 cells with high and low Bcl-2; assay type: cell-based, human; details: 10% FBS
Procedure: MDA-MB-231 and MCF-7 breast cancer cell lines stably overexpressing Bcl-2 were generated via electroporation and subsequent clonal expansion in G418-containing media. MDA-MB-231 cell clones with sufficiently high expression of Bcl-2 (MDA-MB-231/Bcl-2) determined by western blotting was selected for screening along with their vector controls (MDA-MB-231/Vector). Similarly MCF-7 cells clones were selected for characterization of lead molecules.
Cell viability was determined using CellTiter Glo Luminescent Cell Viability Assay (Promega, Madison, Wis.) as per manufacturer instructions. DAPI stain was used to assess apoptosis. Colony forming assays were performed as described previously.

[4] = system: MDA-MB-468 cells with or without Bcl-2 expression; assay: Viability of MDA-MB-468 cells with Bcl-2 knockdown; assay type: cell-based, human; details: 10% FBS; for Effect of Bcl-2 knockdown on viability effect in MDA-MB-468 cells: 48 h
Procedure: For Bcl-2 knockdown experiments, MDA-MB-468 cells were seeded at 4,000 cells per well in a 96 well black plate. The day after seeding, cells were subjected to Bcl-2 knockdown with 25 ng siRNAs (Dharmacon Research, Lafayette, Colo.) or 25 ng control siRNA against luciferase (Dharmacon Research, Lafayette, Colo.) using Dharmafect as transfecting reagent. After 72 h of transfection time, cells were treated with indicated compounds for 48 h and viability was assayed with CellTiter Glo Luminescent Cell Viability Assay (Promega, Madison, Wis.).

[5] = system: normal mammary epithelial cells (MCF-10A and HMECs); assay: Viability of normal mammary epithelial cells; assay type: cell-based, human
Excerpt: FIG. 9F depicts viability of methotrexate treated breast cancer cell line (ZR-75-1) in comparison to normal mammary epithelial cells (MCF-10A and HMECs).

[6] = system: MDA-MB-231/Vector and MDA-MB-231/Bcl-2 cells; assay: Clonogenic survival of MDA-MB-231 cells; assay type: cell-based, human
Bcl-2 loop domain = Bcl-2 loop domain (Homo sapiens, UniProt P10415); assay: Limited proteolysis of GST tagged Bcl-2 loop domain with trypsin; assay type: biochemical; details: for Proteolysis of Bcl-2 loop domain: 50 μM, trypsin 1, 2, 4 and 8 min
Chain of Bcl-2 loop domain (P10415 29-90 limits assumed): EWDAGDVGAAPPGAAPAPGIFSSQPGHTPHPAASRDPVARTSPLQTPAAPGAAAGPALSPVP
Procedure: FIG. 11B depicts proteolysis of Bcl-2 loop domain in the presence of methotrexate. GST tagged BCl-2 loop domain was incubated with 1 μM methotrexate at the indicated times to determine if methotrexate interaction with loop domain has an effect on the proteolysis pattern upon co incubation with trypsin.
Purified GST tagged Bcl-2 loop domain was incubated with 50 μM BFC1108 at the indicated times to determine if BFC1108 interaction with loop domain has an effect on the proteolysis pattern upon co-incubation with trypsin.
FIG. 22B depicts limited proteolysis of Bcl-2 loop domain in the presence of BFC1103.
(§1) GST-Bcl-2 and GST only fragments (60 μg) were incubated with 0.1% DMSO or BFC1103 (50 μM) for 1 h and proteolyzed by 3 μg/ml of trypsin for 1, 2, 4 and 8 min. Reactions were quenched by the addition of laemmli buffer. The resulting protease cleavage fragments were resolved on a 12% SDS-PAGE gel and visualized by coomassie blue staining.
as §1, with “GST-Bcl-2 loop71” for “GST-Bcl-2”, “Laemmli” for “laemmli”, “Coomassie” for “coomassie”

[7] = system: WT MEF, Bax−/− MEF, Bak−/− MEF and Bax−/− Bak−/− MEF cells; assay: Viability of MEF cells with or without Bax or Bak; assay type: cell-based, mouse; details: 24 h, 10% serum; for Bax/Bak dependence of effect on MEF viability: 1 μM, WT, Bak−/− and DKO MEF; for viability at 1 µM: Mus musculus, MEF, normalized to vehicle
Procedure: WT MEF, BAX^−/− MEF, BAK^−/− MEF and Bax^−/− Bak^−/− MEF cells were treated with MTX at 1 μM concentration for 24 h in 10% serum conditions. Viability was assessed using the Glo assay. MTX treatments were normalized to 100% of Vehicle.
FIG. 17C WT MEF, Bax−/− MEF, Bak−/− MEF and Bax−/− Bak−/− MEF cells were treated with 1 μM BFC1108 for 24 h in 10% FBS medium and viability was assessed using cell titer glo assay.
WT MEF, Bax^−/− MEF, Bak^−/− MEF and Bax^−/− Bak^−/− MEF cells were treated with 1 μM BFC1103 for 24 h in 10% FBS medium and viability was assessed using cell titer glo assay.

[8] = 10 μM, 48 h, colony formation for 2 weeks

Compound: CCCCc1ccc(NC(=O)CN(Cc2ccccc2)S(C)(=O)=O)cc1 [BFC1103, N-2-benzyl-N-1-(4-butylphenyl)-N-2-(methylsulfo-nyl) glycinamide]
- Bcl-2 dependent effect on viability, Jurkat/Bcl-2 vs control ([1]; 10 μM, 24 h, 10% serum): reduced the viability of Jurkat human T cell leukemia cells with high Bcl-2 expression, compared to control cells
- Bcl-2 selective reduction in viability, MDA-MB-231/Bcl-2 vs MDA-MB-231/Vector ([2]; 24 h): Bcl-2 dependent reduction in viability of MDA-MB-231 cells; also recorded: Bcl-2 selective induction of cell death
- Viability of MDA-MB-231 with increased Bcl-2 vs control cells under hypoxic conditions ([2]; hypoxic conditions): significant reduction in viability of MDA-MB-231 with increased Bcl-2 expression compared to the control cells
- Bcl-2 dependent effect on viability, MCF-7/Bcl-2 vs MCF-7/Vector ([3]; 10 μM, 24 h): reduced the viability of MCF-7 cells with high Bcl-2 levels, compared to Bcl-2 low expressing control cells
- Effect of Bcl-2 knockdown on viability effect in MDA-MB-468 cells [4]: Suppression of Bcl-2 expression reduced the effect of BFC1103
- Viability of normal mammary epithelial cells MCF-10A ([5]; 24 h, 10% FBS): minimal effect on normal mammary epithelial cells (MCF-10A)
- Clonogenic survival of MDA-MB-231 cells over-expressing Bcl-2 vs control cells [6, 8]: formed significantly fewer colonies, compared to control cells
- Proteolysis of Bcl-2 loop domain (Bcl-2 loop domain): delayed the proteolysis of the loop domain of Bcl-2
- Bax/Bak dependence of effect on MEF viability [7]: wild type MEF cells, MEF cells without Bax or Bak expression had significant reduction in their viability compared to the double knockout (DKO) MEFs

Compound: CCOc1ccccc1NC(=O)c1cc(Cl)ccc1NC(=O)c1ccc(OC)cc1 [BFC1108, 5-chloro-N-(2-ethoxyphenyl)-2-[(4-methoxybenzoyl)amino]-benzamide]
- Bcl-2 dependent effect on viability, Jurkat/Bcl-2 vs Jurkat/Vector ([1]; 48 h, 10% FBS): reduction in viability was seen compared to their Bcl-2 low-expressing control cells
- Bcl-2 selective reduction in viability, MDA-MB-231/Bcl-2 vs MDA-MB-231/Vector ([2]; 24 h): better Bcl-2 selective induction of cell death
- Bcl-2 dependent reduction in viability, MDA-MB-231/Bcl-2 vs Vector ([2]; 48 h): dose dependent reduction in viability of Bcl-2-high expressing cells (MDA-MB-231/Bcl-2), compared to their vector controls
- Bcl-2 dependent effect on viability, MCF-7/Bcl-2 vs MCF-7/Vector ([3]; 48 h): MCF-7 cells with high-Bcl-2 expression are more sensitive to BFC1108
- Effect of Bcl-2 knockdown on viability effect in MDA-MB-468 cells [4]: When Bcl-2 was knocked down, the cells were rescued from the effects of BFC1108
- Viability of normal mammary epithelial cells MCF-10A ([5]; 48 h, 10% serum): No effect on the viability of MCF-10A cells
- Effect on colony forming ability of low Bcl-2 expressing 231/Vector control cells [6, 8]: not seen
- Reduction in colony forming ability of MDA-MB-231/Bcl-2 cells compared to vehicle controls [6, 8]: 50%
- Proteolysis of Bcl-2 loop domain (Bcl-2 loop domain): increased proteolysis of Bcl-2 loop domain was noticeable by 4 min time point
- Bax/Bak dependence of effect on MEF viability [7]: no effect on viability in DKO MEFs, whereas Bax^−/− MEF and Bak^−/− MEF have diminished viability

- Proteolysis pattern of Bcl-2 loop domain (Bcl-2 loop domain; 1 μM methotrexate, trypsin): differential proteolysis pattern
Compound: CN(Cc1cnc2nc(N)nc(N)c2n1)c1ccc(C(=O)N[C@@H](CCC(=O)O)C(=O)O)cc1 [MTX, (2S)-2-[[4-[(2,4 diaminopteridin-6-yl)methylmethylamino]benzoyl]amino] pentanedioc acid]
- Bcl-2 dependent effects in Jurkat Lymphoma cells ([1]; Bcl-2 low and high expressing Jurkat lymphoma cells treated for 72 hours with various concentrations): Yes
- minimal effective concentration ([1]; Homo sapiens, Jurkat lymphoma cells, 72 hours, n/d means no reduction was detected at concentrations tested, read-out: Lowest effective dose (minimal effective concentration that induced Bcl-2-dependent reduction in cell viability)): 0.01 µM
- Viability of Jurkat/Bcl-2 vs Vector under hypoxic conditions ([1]; hypoxic conditions, 10% FBS, 24 h): significant reduction in viability of Jurkat/Bcl-2 cells compared to their Vector control
- Bcl-2 dependent apoptosis with folate supplementation ([1]; supplemented with 1 μM of folic acid): Bcl-2 dependent apoptosis was still observed
- Bcl-2 selective reduction in viability, MDA-MB-231/Bcl-2 vs MDA-MB-231/Vector ([2]; 24 h): selectively induce more cell death in high-Bcl-2 expressing MDA-MB-231 cells
- Bcl-2 dependent reduction in viability, MDA-MB-231/Bcl-2 vs Vector ([2]; various concentrations, 24 h): reduced viability in MDA-MB-231/Bcl-2 cells significantly in comparison to the MDA-MB-231/Vector control cells
- Bcl-2 dependent effect on viability, MCF-7/Bcl-2 vs MCF-7/Vector ([3]; 10 μM, 24 h): Bcl-2 dependent effect of MTX was consistent in estrogen receptor (ER) positive MCF-7 cells over-expressing Bcl-2
- Effect of Bcl-2 knockdown on effect in MDA-MB-468 cells ([4]; various concentrations, 24 h): Knockdown of Bcl-2 in MDA-MB-468 cells diminished the apoptotic effect of MTX
- Viability of normal breast epithelial cells MCF-10A and HMEC ([5]; similar concentrations of MTX as in cancer cells): relatively unaffected
- Reduction in colonies formed by MDA-MB-231/Bcl-2 cells compared to vector controls ([6]; 10 μM MTX, 24 h): 60%
- Bax/Bak dependence of effect on MEF viability [7]: viability of Bax^−/− Bak^−/− MEF (DKO) cells was not effected
- viability at 1 µM ([7]; read-out: Viability, Bak−/− MEF): ~40%
- viability at 1 µM ([7]; read-out: Viability, Bax−/− MEF): ~40%
- viability at 1 µM ([7]; read-out: Viable cells, wild type MEF): ~30%
